pIC50: −log10 of the molar value.
System: 349418-098-R-PDC complex spheroid growth
Experiment: Anticancer human tumor 349418-098-R-PDC patient-derived lung adenocarcinoma cell line growth inhibition [AhR]
Conditions: for pIC50: curve of first compound; for viability, T/C: stronger effect = lower value
Description: Multicellular complex tumor spheroid response to aryl hydrocarbon receptor antagonists in combination with a variety of drugs and investigational agents in selected tumor cell lines
The current study was undertaken to assess response to aryl hydrocarbon receptor antagonists in combination with standard-of-care drugs and investigational agents in solid tumor complex spheroid models. Complex spheroids include a stromal component modeled by human endothelial cells (HUVEC) and fibroblasts modeled by human mesenchymal stem cells (MSCs). The concentration ranges selected for each drug and investigational agent were based upon clinically achievable concentrations if the clinical Cmax of the agent was known.
Compounds. The drugs and investigational agents: BAY 2416964 (NSC825713), GNF351 (NSC835774), CH-223191 (NSC835775), CPI-455 (NSC825282), aza-TdCyd (NSC777586), decitabine (NSC127716), belinostat (NSC758774), entinostat (NSC756642), pevonedistat (NSC761192), tazemetostat (NSC777109), talazoparib (NSC765396), olaparib (NSC753686), selinexor (NSC780203), nedisertib (M3814, NSC802822), bortezomib (NSC756655), venetoclax (NSC766270), doxorubicin (NSC123127), elimusertib (BAY189344, NSC800525), ceralasertib (AZD6738, NSC777638), TAK-243 (NSC785004), alisertib (NSC759677), etoposide (NSC141540), topotecan (NSC609699), eribulin (NSC707389), gemcitabine (NSC613327), carboplatin (NSC241240), cisplatin (NSC119875), and SN-38 (NSC673596) were obtained from the National Cancer Institute (NCI) Developmental Therapeutics Program Chemical Repository (32). The FDA-approved anticancer drug set is available from the Developmental Therapeutics Program at https://dtp.cancer.gov/organization/dscb/obtaining/available plates.htm. […] The stock solutions were prepared in dimethyl sulfoxide (DMSO, Sigma-Aldrich, St. Louis, MO, cat. D2650), except for the platinum compounds which were prepared in saline (Quality Biological, Gaithersburg, MD, cat. 114-055-101), at 800-fold the tested concentration and stored at -70 degrees C prior to their use. All drugs and investigational agents were tested over a range starting from a high concentration at or near the clinical Cmax and decreasing in half-log increments. If the clinical Cmax for an agent had not been determined, the highest concentration tested was 10 microM (Table 1).
Cell Culture. All cells were maintained in an incubator at 37 degrees C and 5% CO2 with 95% humidity. The PDC lines were cultured according to standard operating procedures established by the NCI PDMR (https://pdmr.cancer.gov). Briefly, all PDCs were thawed and cultured in Matrigel-coated flasks prepared with a working solution of 1X Ham's F-12 nutrient mix, without supplementation (Invitrogen, Waltham, MA, cat. 11765054), 100 U/mL penicillin-streptomycin (Invitrogen, cat. 15140122), and 2.5% Matrigel (Corning Inc., Corning, NY, cat. 354248) for the first three passages. All PDCs were cultured in complete DMEM/F-12 media containing advanced DMEM/F-12 (Invitrogen, cat. 12634028), 4.9% defined fetal bovine serum, heat inactivated (HyClone Laboratories Inc., Logan, UT, cat. SH30070.03HI), 389 ng/mL hydrocortisone (Sigma-Aldrich, cat. H4001), 9.7 ng/mL human EGF recombinant protein (Invitrogen, cat. PHG0313), 23.4 microg/mL adenine (Sigma-Aldrich, cat. A2786), 97.3 U/mL penicillin-streptomycin (Invitrogen, cat. 15140122), 1.9 mM L-glutamine (Invitrogen, cat. 25030081), and 9.7 microM Y-27632 dihydrochloride (Tocris Bioscience, Bristol, United Kingdom, cat. 1254). The PDCs were cultured in complete DMEM/F12 media without 10 microM Y-27632 dihydrochloride for at least two passages prior to the screen. The established cell lines NCI-H1341 and […] were cultured in DMEM/F-12, HEPES (Invitrogen, cat. 11330032), 5% defined fetal bovine serum (HyClone Laboratories Inc., cat. SH30070.03), ITS premix universal culture supplement [insulin (5 microg/mL), transferrin (5 microg/mL), and selenious acid (5 ng/mL)] […]

[1] = second compound 0.1 µM, first compound 0.0316 µM
[2] = second compound 0.1 µM, first compound 0.1 µM
[3] = second compound 0.316 µM, first compound 0.0316 µM
[4] = second compound 0.316 µM, first compound 0.1 µM
[5] = second compound 1 µM, first compound 0.0316 µM
[6] = second compound 1 µM, first compound 0.1 µM
[7] = second compound 3.16 µM, first compound 0.0316 µM
[8] = second compound 3.16 µM, first compound 0.1 µM
[9] = second compound 10 µM, first compound 0.0316 µM
[10] = second compound 10 µM, first compound 0.1 µM
[11] = second compound 0.1 µM, first compound 0.316 µM
[12] = second compound 0.1 µM, first compound 1 µM
[13] = second compound 0.1 µM, first compound 3.16 µM
[14] = second compound 0.1 µM, first compound 10 µM
[15] = second compound 0.316 µM, first compound 0.316 µM
[16] = second compound 0.316 µM, first compound 1 µM
[17] = second compound 0.316 µM, first compound 3.16 µM
[18] = second compound 0.316 µM, first compound 10 µM
[19] = second compound 1 µM, first compound 0.316 µM
[20] = second compound 1 µM, first compound 1 µM
[21] = second compound 1 µM, first compound 3.16 µM
[22] = second compound 1 µM, first compound 10 µM
[23] = second compound 3.16 µM, first compound 0.316 µM
[24] = second compound 3.16 µM, first compound 1 µM
[25] = second compound 3.16 µM, first compound 3.16 µM
[26] = second compound 3.16 µM, first compound 10 µM
[27] = second compound 10 µM, first compound 0.316 µM
[28] = second compound 10 µM, first compound 1 µM
[29] = second compound 10 µM, first compound 3.16 µM
[30] = second compound 10 µM, first compound 10 µM
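Note: spheroids exposed to agents for seven days before luminescence viability read.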
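Throughout, for viability, T/C: spheroids also contain HUVEC endothelial cells and human MSC stroma.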

Compound | pIC50 (second compound 0.1 µM) | pIC50 (second compound 0.316 µM) | pIC50 (second compound 1 µM) | pIC50 (second compound 3.16 µM) | pIC50 (second compound 10 µM) | viability, T/C [1] [%] | viability, T/C [2] [%] | viability, T/C [3] [%] | viability, T/C [4] [%] | viability, T/C [5] [%] | viability, T/C [6] [%] | viability, T/C [7] [%] | viability, T/C [8] [%] | viability, T/C [9] [%] | viability, T/C [10] [%] | viability, T/C [11] [%] | viability, T/C [12] [%] | viability, T/C [13] [%] | viability, T/C [14] [%] | viability, T/C [15] [%] | also measured
CC[C@@]1(O)C(=O)OCc2c1cc1n(c2=O)Cc2cc3c(CN(C)C)c(O)ccc3nc2-1 + CC(CO)NC(=O)c1cc(-c2ccc(Cl)cc2)nn(-c2cnn(C)c2)c1=O | 7.61 | 7.77 | 7.97 | 7.91 | 8.44 | 43.9 | 16.2 | 37.7 | 12.8 | 29.3 | 12.8 | 21.9 | 12.4 | 23.1 | 13.6 |  |  |  |  |  | viability, T/C (second compound 0.1 µM, first compound 0.000316 µM): 90%; viability, T/C (second compound 0.1 µM, first compound 0.001 µM): 115%; viability, T/C (second compound 0.1 µM, first compound 0.00316 µM): 97.5%; viability, T/C (second compound 0.1 µM, first compound 0.01 µM): 75.7%; viability, T/C (second compound 0.316 µM, first compound 0.000316 µM): 136%; viability, T/C (second compound 0.316 µM, first compound 0.001 µM): 118%; viability, T/C (second compound 0.316 µM, first compound 0.00316 µM): 87.8%; viability, T/C (second compound 0.316 µM, first compound 0.01 µM): 60.9%; viability, T/C (second compound 1 µM, first compound 0.000316 µM): 118%; viability, T/C (second compound 1 µM, first compound 0.001 µM): 136%; viability, T/C (second compound 1 µM, first compound 0.00316 µM): 72.4%; viability, T/C (second compound 1 µM, first compound 0.01 µM): 57.8%; viability, T/C (second compound 3.16 µM, first compound 0.000316 µM): 92.9%; viability, T/C (second compound 3.16 µM, first compound 0.001 µM): 93.2%; viability, T/C (second compound 3.16 µM, first compound 0.00316 µM): 83.4%; viability, T/C (second compound 3.16 µM, first compound 0.01 µM): 56.3%; viability, T/C (second compound 10 µM, first compound 0.000316 µM): 51.1%; viability, T/C (second compound 10 µM, first compound 0.001 µM): 65%; viability, T/C (second compound 10 µM, first compound 0.00316 µM): 51.3%; viability, T/C (second compound 10 µM, first compound 0.01 µM): 35%
COc1cc(C2c3cc4c(cc3C(OC3OC5COC(C)OC5C(O)C3O)C3COC(=O)C23)OCO4)cc(OC)c1O (stereo not given) + CC(CO)NC(=O)c1cc(-c2ccc(Cl)cc2)nn(-c2cnn(C)c2)c1=O | 6.14 | 6.22 | 6.30 | 6.57 | 6.87 | 103 | 98 | 108 | 109 | 102 | 90.2 | 78.8 | 104 | 59 | 56.4 | 91.1 | 34.1 | 18 | 12.9 | 72.4 | viability, T/C [16]: 32.6%; viability, T/C [17]: 16.2%; viability, T/C [18]: 11.3%; viability, T/C [19]: 64.5%; viability, T/C [20]: 29%; viability, T/C [21]: 18.7%; viability, T/C [22]: 14.6%; viability, T/C [23]: 43.2%; viability, T/C [24]: 25.1%; viability, T/C [25]: 16.6%; viability, T/C [26]: 13.5%; viability, T/C [27]: 36%; viability, T/C [28]: 22.3%; viability, T/C [29]: 14.4%; viability, T/C [30]: 14.1%
Nc1ccn(C2OC(CO)C(O)C2(F)F)c(=O)n1 (stereo not given) + CC(CO)NC(=O)c1cc(-c2ccc(Cl)cc2)nn(-c2cnn(C)c2)c1=O | > 7.50 | > 7.50 | > 7.50 | > 7.50 | > 7.50 | 11.7 | 13.3 | 11.5 | 12.5 | 12.7 | 13.5 | 12.1 | 13.4 | 12.3 | 11 | 12.8 | 10.8 | 9.89 | 7.31 | 13.3 | viability, T/C [16]: 10.6%; viability, T/C [17]: 9.24%; viability, T/C [18]: 6.37%; viability, T/C [19]: 13.3%; viability, T/C [20]: 11.2%; viability, T/C [21]: 8.78%; viability, T/C [22]: 5.77%; viability, T/C [23]: 12.8%; viability, T/C [24]: 9.14%; viability, T/C [25]: 7.92%; viability, T/C [26]: 7.72%; viability, T/C [27]: 11.6%; viability, T/C [28]: 8.92%; viability, T/C [29]: 7.77%; viability, T/C [30]: 8.23%
